Reference: patent US20170226507A1, “COORDINATE CONTROL OF PATHOGENIC SIGNALING BY THE MIR-130/301 FAMILY IN PULMONARY HYPERTENSION AND FIBROPROLIFERATIVE DISEASES” (The Brigham and Women's Hospital, Inc., priority 2014, published 2017)
Entries after “also recorded” stand apart in the source; their conditions may differ. No end group written: not given here.

Experiments:
[1] = system: Bleomycin-induced lung fibrosis in mice; experiment: Bleomycin-induced lung fibrosis in mice; type: in vivo, mouse
[2] = system: hypoxia-induced PH in mice; experiment: Hypoxia-induced PH in mice: BAPN (prevention, rescue) or GW3965 (prevention); type: in vivo, mouse
Description: Finally, we wanted to determine if ApoE activity and/or LOX-dependent vascular stiffening were essential for ECM stiffening and PH development by miR-130/301. To assess the importance of ApoE activity, we attempted to prevent PH in mice via treatment with daily dietary ingestion of the liver-X nuclear hormone receptor (LXR) agonist GW3965, a known pharmacologic inducer of ApoE (Pencheva et al., 2014), simultaneously with hypoxia (FIGS. 62A-62H and 68A-H). Alternatively, experiments were designed to either prevent or reverse hypoxia-induced PH in mice via serial treatment with a pharmacologic inhibitor of LOX (Levental et al., 2009), β-aminopropionitrile BAPN, administered either simultaneously with hypoxia exposure (“prevention”) or after disease development (“reversal”) (FIGS. 62A-62H and 68A-H). In all cases of GW3965 or BAPN treatment, collagen crosslinking (FIG. 62D, 62H, FIG. 68) was inhibited, leading to decreased indices of PH, as reflected by RVSP (FIG. 62A, 62E), right ventricular remodeling (RV/LV+S ratio; FIG. 62B, 62F) and pulmonary arteriolar muscularization (FIG. 62C, 62G). GW3965 or BAPN treatment also reversed Pparγ and Lrp8 down-regulation (FIGS. 68A-68H) as well as reduced YAP nuclear localization (FIG. 62D, 62H) and YAP activation, as reflected by decreased Ctgf (FIGS. 68A-68H). Thus, considering the convergent data regarding pharmacologic manipulation of miR-130/301, APOE, and LOX, we can conclude that the YAP-TAZ-miR-130/301 circuit and its downstream network of targets act as master regulators of ECM remodeling in PH and represent a new set of targets for tailored molecular therapy in this disease.
To determine the effects of the LXR agonist GW3965 (Sigma-Aldrich) and consequent APOE induction on PH development, as previously described (Pencheva et al., 2014), mice were exposed to normobaric hypoxia and simultaneously assigned to control chow or chow supplemented with GW3965 (Research Diets, Inc.) at doses of 100 mg of drug per kilogram of mouse per day (based on average daily intake of […] of chow).
Picrosirius Red stain was achieved through the use of 5 μm paraffin sections stained with 0.1% Picrosirius Red (Direct Red80, Sigma-Aldrich) and counterstained with Weigert's hematoxylin to reveal fibrillar collagen. The sections were then serially imaged using with an analyzer and polarizer oriented parallel and orthogonal to each other. Microscope conditions (lamp brightness, condenser opening, objective, zoom, exposure time, and gain parameters) were constant throughout the imaging of all samples. A minimal threshold was set on appropriate control sections for each experiment in which only the light passing through the orthogonally-oriented polarizers representing fibrous structures (i.e., excluding residual light from the black background) was included. The threshold was maintained for all images across all conditions within each experiment. The area of the transferred regions that was covered by the thresholded light was calculated and at least 10 sections/vessel per condition were averaged together (Image J software).
This protocol was adapted from a previously published protocol (Hu et al.). Mouse lung was weighed, minced, and incubated in 0.5 M acetic acid at 4° C. After overnight digestion, the acetic acid-soluble and insoluble fractions were isolated by centrifugation. The soluble fraction was stored at −80° C., while the insoluble fraction was digested by overnight incubation in 6M hydrochloric acid at 85° C. Concentrations of soluble and insoluble (gelatinous) collagen fractions were determined using a Sircol Soluble Collagen Assay Kit (Biocolor) with a colorimetric reaction (measured at 550 nm) and a provided collagen reference standard curve.

[3] = system: liver-X nuclear hormone receptor (LXR); experiment: Oral LXR agonist GW3965 in bleomycin-exposed mice (lung fibrosis); type: in vivo, mouse; details: 100 mg/kg/day in chow
Procedure: C57BL/6 mice (7-8 weeks old) were exposed to 0.035 U of bleomycin via oropharyngeal route. In the control group, saline (PBS) was administered via the same route. Mice were euthanized 14 days or 21 days after bleomycin administration. To determine the effects of the LXR agonist GW3965 (Sigma-Aldrich) and consequent APOE induction on lung fibrosis, as previously described^12, mice were exposed to bleomycin (as described above) and simultaneously assigned to control chow or chow supplemented with GW3965 (Research Diets, Inc.) at doses of 100 mg of drug per kilogram of mouse per day (based on average daily intake of […] of chow). After two weeks, harvest of lung tissue was performed for RNA/protein extraction or paraffin embedding. Messenger RNAs were reverse transcribed using the Multiscript RT kit (Life Technologies) to generate cDNA. cDNA was amplified via fluorescently labeled Taqman primer sets using an Applied Biosystems 7900HT Fast Real Time PCR device. […] A primary antibody against YAP1 (#4912; 1/200) was obtained from Cell Signaling. Primary antibodies against, LRP8 (ab115196; 1/100), α-SMA (1/400) were purchased from Abcam. Primary antibodies against PPARγ (sc-7273; 1/50) was purchased from Santa Cruz. Primary antibody against anti-shortmer ([…]-[…]; 1/1000) was provided by Regulus Therapeutics, as previously described^2. […] Pictures were obtained using an Olympus Bx51 microscope. For liver tissue and pulmonary tissue, 10 random 20× fields per animal were analyzed. Intensity of staining was quantified using ImageJ software (NIH). […] Degree of liver fibrosis was assessed in paraffin-embedded liver sections stained for α-SMA by […] score^65. All measurements were performed blinded to condition. […] The sections were then serially imaged using with an analyzer and polarizer oriented parallel and orthogonal to each other. Microscope conditions (lamp brightness, condenser opening, objective, zoom, exposure time, and gain parameters) were constant throughout the imaging of all samples. A minimal threshold was set on appropriate control sections for each experiment in which only the light passing through the orthogonally-oriented polarizers representing fibrous structures (i.e., excluding residual light from the black background) was included. The threshold was maintained for all images across all conditions within each experiment. The area of the transferred regions that was covered by the thresholded light was calculated and at least 10 sections per condition were averaged together (Image J software).

STAT3 = STAT3 phosphorylation in PASMCs (conditioned media from PAECs or endothelin-1; immunoblot); type: cell-based, human; details: direct exposure to endothelin-1
Procedure: (§1) (FIG. 40A) A schematic diagram of co-culture experiments: conditioned media from transfected PAECs (miRNA, anti-miRNA, tiny-LNA or siRNA under normoxic or hypoxic conditions) were filtered and applied onto naïve PASMCs cultured in matrigel. At specific times, PASMCs or PASMC-matrigel cultures were arrested and analyzed for STAT3 activation (phosphorylation) or contraction, respectively.
(§2) 50000 PASMC were embedded in 100 ul of matrix gel as previous described (Gagiolli et al) and plated into well of a 96 well plate. After 1 h at 37° C., these matrices were overlaid with 100 ul of conditioned PAECs serum-free medium (transfected with siRNA, miRNA or anti-miRNA and supplemented with Ambriesentan 10 uM). Every 12 h, medium was changed and at day 4 the gels were photographed and the relative diameter of the well and the gel were measured using ImageJ. The percentage contraction was calculated using the formula 100*(well diameter−gel diamter)/well diameter. For the co-culture experiment, conditioned media from PAEC transfected as indicated were applied on PASMCs or Fibroblast previously starved (24 h). Cells were collected at different time and analyzed by western blotting.
Cells were lysed in RIPA buffer (Santa Cruz Biotechnology) and the protein concentration determined using a Bradford assay (Biorad). Protein lysate ([…]) were resolved by SDS-PAGE and transferred onto a PVDF membrane (Biorad). Membranes were blocked in 5% non-fat milk in TN buffer (50 mM Tris-HCl pH 7.4, 150 mM NaCl) and incubated in the presence of the primary and then secondary antibodies. After washing in TN buffer containing 0.1% Tween, immunoreactive bands were visualized with the ECL system (Amersham Biosciences). […] Primary antibodies for STAT3 (#9139) and P-STAT3 (Tyr-705; #9145) were purchased from Cell Signaling. Primary antibodies against actin (ab 3280), was obtained from Abcam. Appropriate secondary antibodies (anti-rabbit and anti-mouse) coupled to HRP were used (Santa Cruz Biotechnology).

PASMCs = experiment: Contraction assay of PASMCs in matrigel; type: cell-based, human; details: endothelin-1 for 4 days vs vehicle
Procedure: as §1, §2

O=C(O)Cc1cccc(OCCCN(Cc2cccc(C(F)(F)F)c2Cl)CC(c2ccccc2)c2ccccc2)c1 [GW3965]
Pparγ and Lrp8 (and Timp2) expression ([1]; IHC / in situ stain): blunted
Ctgf, collagen isoforms and Lox transcripts ([1]; RT-PCR): reduced
collagen deposition and cross-linking ([1]; Short-130 20 mg/kg i.p. or GW3965 100 mg/kg dietary): blunted
lung fibrosis (α-SMA, collagen staining, Ashcroft score) ([1]; Short-130 or GW3965 100 mg/kg dietary): ameliorated
Yap nuclear localization / YAP ([1]; in situ stain): blunted
perivascular collagen crosslinking ([2]; Picrosirius Red): inhibited; also recorded: decreased
Ctgf, collagen isoforms, and Lox in lung ([2]; RT-qPCR): blunted
whole lung collagen content and crosslinked collagen ([2]; Sircol assay): nearly normalized
arteriolar muscularization ([2]; hypoxic mice): decreased; also recorded: prevented
right ventricular hypertrophy (Fulton index, RV/LV+S) ([2]; hypoxic mice): decreased; also recorded: prevented
RVSP ([2]; hypoxic mice, BAPN prevention and rescue, GW3965 100 mg/kg/day in chow, 100 mg/kg/day): decreased; also recorded: prevented
hypoxia mediated decreases of Lrp8 and Pparγ ([2]; in situ staining): reversed; also recorded: prevented
hypoxia-mediated increases of α-SMA and YAP ([2]; in situ staining): reduced; also recorded: blunted
Pparγ and Lrp8 down-regulation [3]: reversed
YAP activation, Ctgf expression [3]: decreased
YAP nuclear localization [3]: reduced
collagen crosslinking ([3]; two weeks): inhibited
indices of lung fibrosis, Ashcroft score ([3]; two weeks): decreased

endothelin-1: recombinant human EDN1 applied to PASMCs at 1 nM (CSCSSLMDKECVYFCHLDIIW; ends and bridges not checked; cysteine pairing not given here; UniProt P05305 53-73, looked up)
STAT3 phosphorylation in PASMCs (STAT3): time-dependent increase
STAT3 phosphorylation in PASMCs (STAT3; listed as EDN1): increased
matrigel contraction of PASMC culture (PASMCs): led to matrigel contraction
matrigel contraction of PASMC culture (PASMCs; listed as EDN1): increased
